The results in this text go back to patent US11938127B2, “Methods and compositions relating to steroid hormone receptor-dependent proliferative disorders” (Wayne State University, priority 2021, dated 2024).

The structures appear in SMILES notation. Read-outs that look alike come from different tables or passages of the source.

Data set [1] deals with UGT1A1 (Homo sapiens (Human), UniProt P22309). Kind of data set: UGT1A1 inhibition assay with human UGT1A1-expressed Supersomes. The format is in vitro ADME. The protocol: KCI838 was incubated at seven increasing concentrations with human UGT1A1-expressed Supersomes™ (0.25 mg/mL), alamethicin (25 μg/mL) and UDPGA (5 mM) in the presence of the probe substrate estradiol (10 μM) for 30 min at 37° C. The UGT1A1 inhibitor, atazanavir, was screened alongside the test compounds as a positive control. The reactions were terminated by quenching with one volume of methanol containing an analytical internal standard. The samples will be centrifuged at 5000 rpm for 10 min at 4° C. The metabolites were monitored by LC-MS/MS and a decrease in the formation of the metabolite compared to the vehicle control was used to calculate an IC50 value (test compound concentration which produces 50% inhibition).
Sequence of UGT1A1 (Homo sapiens (Human), UniProt P22309) (P22309 26-533): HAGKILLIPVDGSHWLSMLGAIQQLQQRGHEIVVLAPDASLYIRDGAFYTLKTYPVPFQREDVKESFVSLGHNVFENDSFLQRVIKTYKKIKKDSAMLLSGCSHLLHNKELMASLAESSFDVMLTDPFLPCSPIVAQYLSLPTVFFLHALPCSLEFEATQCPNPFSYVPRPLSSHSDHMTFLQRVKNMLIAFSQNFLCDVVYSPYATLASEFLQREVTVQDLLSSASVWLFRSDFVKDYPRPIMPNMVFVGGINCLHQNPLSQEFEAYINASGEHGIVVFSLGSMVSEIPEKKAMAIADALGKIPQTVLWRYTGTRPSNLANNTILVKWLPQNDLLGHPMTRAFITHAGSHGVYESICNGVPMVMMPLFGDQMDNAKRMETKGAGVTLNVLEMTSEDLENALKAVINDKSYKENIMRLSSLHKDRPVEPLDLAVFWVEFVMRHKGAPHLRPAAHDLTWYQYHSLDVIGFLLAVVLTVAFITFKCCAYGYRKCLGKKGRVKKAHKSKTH

Data set [2] concerns 22Rv1 cells. Kind of data set: Cell viability (MTT) assay, monolayer growth of 22Rv1 cells. Conditions: enzalutamide-resistant 22Rv1 CRPC monolayers; 2.5 uM, 5 uM and 10 uM. In kind it is cell-based. As to the method: (§1) Cells from monolayer cultures were trypsinized and seeded in 96-well plates coated with poly(d-lysine) at a density of 4000 cells per well (for 22Rv1 cells and LNCaP cells) or 5000 cells per well (for VCaP cells). The media used were the same as the growth media described above for each cell line. The plates were incubated at 37° C. in 5% CO2. Twenty-four hours later, the cells were treated with the indicated compound or dimethylsulfoxide (vehicle). The culture medium was replaced with fresh media containing vehicle or the appropriate concentration of compound at the end of 48 hours during the time course of the assay. Cell viability was determined on Day 0 and at the various time points using the standard 3-(4,5-dimethylthiazol-2-yl)-2,5-diphenyltetrazolium bromide (MTT) assay. The assays ware conducted in replicates of six wells per condition and values plotted as percent of the Day 0 values.

For data set [3], the system named is 22Rv1 cells. Kind of data set: Colony formation assay in 22Rv1 cells. The format is cell-based. Conditions: 22Rv1 CRPC cells. The protocol: (§2) 22Rv1 cells were plated in triplicate at a density of 2000 cells/well in 6-well plates in 48-hour conditioned medium (phenol-red free RPMI1640 10% FBS, 1% penicillin/streptomycin, 1% L-glutamine) obtained from monolayer cultures of the same cells, as previously described. 48 h after plating, the cells were treated with various concentrations of the test compounds in the same media. The test compounds and media were replenished every 48 hours until colonies developed in the control untreated wells (in 10 days). The colonies were then stained with crystal violet and counted.
The ability of KCI837 to inhibit colony formation in castration and enzalutamide resistant prostate cancer cells was tested. 22Rv1 cells were seeded in triplicate six well plates in phenol red-free conditioned media. 48 hours later, treatment with KCI837 at the indicated doses was initiated. KCI837 was replenished every 48 hours. Seven days later, colonies were fixed and stained with crystal violet. Colony counts are plotted.

The next data set relates to VCaP cells. Kind of data set: Cell viability (MTT) assay, monolayer growth of VCaP cells. Conditions: dose range 2.5 uM-10 uM; dose-dependent. In kind it is cell-based. As to the method: as §1
In the next data set the test system is CWR22Rv1-AR-EK cells. Kind of data set: MTT growth assay in CWR22Rv1-AR-EK cells. The format is cell-based. The settings on record: three or four days. As to the method:
This model cell line thus mimics aggressively growing advanced prostate cancer tumor cells that are insensitive to current treatments such as testosterone suppression and androgen antagonists that cannot affect AR-Vs. Since KCI838 disrupts interaction of ELK1 with wtAR as well as AR-Vs, the effect of KCI838 on the growth of CWR22Rv1-AR-EK cells was tested. For this test, the cells were seeded in phenol red-free growth media. 24 hours later, the cells were treated with KCI838, FIG. 12A, or enzalutamide, FIG. 12B, at the indicated concentrations. Cells were grown for three or four days with replenishment of the drug at 48 hours. Cell viability was measured using the MTT assay.
Background: Tetrazolium dyes change colour on reduction, which living cells bring about.

For data set [4], the system named is CYP1A2. Kind of data set: Hepatic enzyme induction (mRNA) in primary human hepatocytes, CYP1A2. In kind it is in vitro ADME. The settings on record: 72 hours. As to the method: (§3) Total RNA from cells was isolated using the PureLink RNA Mini Kit (Invitrogen, ThermoFisher Scientific) according to the manufacturer's protocol. Reverse transcription was performed using 30 ng of total RNA and the High Capacity cDNA Reverse Transcription kit (Applied Biosystems, ThermoFisher Scientific) according to the vendor's protocol. cDNA was measured by quantitative real time PCR using the StepOnePlus Real-Time PCR System (Applied Biosystems, Invitrogen) and TaqMan Fast Universal PCR Master Mix (Applied Biosystems, ThermoFisher Scientific). All primers and TaqMan probes were purchased from the Applied Biosystems inventory (ThermoFisher Scientific). All samples were measured in triplicate and normalized to the values for GAPDH.
(§4) Primary human hepatocytes used were the “Cryo Human Hepatocytes” from Gibco. 24 hours prior to treatment, cells were plated at 350,000 cells/well (700,000 cells/mL) in the following media: Williams E medium (WEM, A1217601), 2.5 mL FBS, 5 μL, 10 mM dexamethasone (from Gibco Thawing/Plating Supplement Pack, CM3000), 1.8 mL thawing/plating cocktail (from Gibco Thawing/Plating Supplement Pack, CM3000). […] The mRNAs for the following hepatic enzymes were quantified as described above. […]

Data set [5] deals with UGT1A1. Kind of data set: Hepatic enzyme induction (mRNA) in primary human hepatocytes, UGT1A1. The format is in vitro ADME. The settings on record: 72 hours, doses of 0.5 uM and 5 uM. The protocol: as §3, §4
The subject of a further data set is UGT1A4. Nature of the data set: Hepatic enzyme induction (mRNA) in primary human hepatocytes, UGT1A4. The settings on record: 72 hours, doses of 0.5 uM and 5 uM. In kind it is in vitro ADME. The protocol: as §3, §4
Data set [6] has as its target CYP1A2 (Homo sapiens (Human), UniProt P05177). Nature of the data set: CYP1A2 inhibition assay in pooled human liver microsomes. The settings on record: standard enzymatic activity assay. In kind it is in vitro ADME. The protocol: The quenched samples were incubated at 4° C. for 10 min and centrifuged at 4° C. for 10 min.
(Liver microsomes are a subcellular fraction often used to study metabolism.)

Data set [7] in a line: Repeated intraperitoneal administration to mice (toxicity, body weight). The format is in vivo, BalbC mice. The settings on record: for initial weight loss: male BalbC mice, intraperitoneal. As to the method: KCI838 was repeatedly administered by intraperitoneal injection to two groups of 6-week old male BalbC mice at doses of 200 mg/Kg and 100 mg/Kg.
Another data set addresses binding of AR to ELK1 (Homo sapiens (Human), UniProt P10275). Kind of data set: BRET assay for inhibition of in situ binding of AR to ELK1 in HEK293T cells. The settings on record: HEK-293T, read-out: inhibition of BRET signal for binding of AR to ELK1. In kind it is cell-based. As to the method: (§5) HEK293T cells were transfected with Rluc-AR alone, and alongside Turbo-Elk at a 4:1 ratio of ELK1:AR using Mirus LT1 reagent. The 4:1 ratio was determined to be the optimal ratio for the inhibition assay after testing different ratios of Turbo-Elk:Rluc-AR. 24 hours later, cells were treated with DMSO (vehicle control) or KCI838 (0.4 uM and 10 uM) and left for 24 hours. They were then trypsinized and seeded in 96 well white-bottomed plates at 100,000 per well (in quadriplicate) in media lacking phenol red (with DMSO or drug as required), left for 2 hours to settle, and then treated with 25 uM coelenterazine and luminescence read at 535 and 635 nm on a Clariostar instrument. BRET readings were calculated as 635/535 ratio minus 635/535 ratio for Rluc-AR only transfected controls. Cell lysates were probed by western blot for AR or ELK1, probing for GAPDH as the loading control. Cell viability in the presence of KCI838 was ensured by treating HEK293 cells for an extended period (3 days) with the compound or vehicle control and measuring viability using trypan blue staining.
HEK293T cells were transfected with Rluc-AR alone, and alongside Turbo-Elk. 24 hours later, cells were treated with KCI838 at the indicated doses. The following day, the cells were reseeded and allowed to settle for two hours before the BRET assay was performed. […]
(In general: BRET reads energy transfer from a luciferase to a nearby fluorophore.)

The next data set has as its system HEK293 cells. Nature of the data set: Viability of HEK293 cells (trypan blue). The settings on record: 3 days treatment, 0.4 μM or 10 μM. The format is cell-based. As to the method: as §5
To ensure that KCI838 was not toxic to the HEK293 cells, viability of the cells was tested following extended (3 days) treatment with, vehicle, 0.4 μM, or 10 μM KCI838. Viable cells were counted after three days and the data was plotted as percent of untreated cells.

The next data set concerns 22Rv1-Lenti vector cells. Nature of the data set: Colony formation in control 22Rv1 cells transduced with lentiviral vector alone. In kind it is cell-based. Conditions: control 22Rv1 cells (vector), with DHT. The protocol: as §2
(§6) AR expressing lentiviral expression plasmid pCDH-CMV-MCS-EF1-puro (System BioSciences) or the plasmid vector alone (control), was packaged in 293FT cells. Virus-containing media was harvested at 48 and 72 hours after packaging and stored at −80° C. 48 hours before infection, 22Rv1 cells were plated at 30-50% confluence in 10 cm dishes in phenol-red free medium supplemented with 10% heat-inactivated FBS and 2 mM L-glutamine. On the day of infection, cells were infected with the lentivirus with polybrene (8 μg/mL) for a duration of 5 hours. The virus was then replaced with fresh medium containing 10% FBS and 100 units/mL penicillin, 100 μg/mL streptomycin, and 2 mM L-glutamine mixture. […]

The subject of a further data set is 22Rv1-Lenti AR cells. Nature of the data set: Colony formation in 22Rv1 cells overexpressing AR. In kind it is cell-based. Conditions: AR overexpressing 22Rv1 cells. As to the method:
as §2, §6

In general, IC50 refers to the concentration needed to halve the response being measured. The inhibition is the relative decrease from the control value, in per cent.

Sequence of binding of AR to ELK1 (P10275 whole entry): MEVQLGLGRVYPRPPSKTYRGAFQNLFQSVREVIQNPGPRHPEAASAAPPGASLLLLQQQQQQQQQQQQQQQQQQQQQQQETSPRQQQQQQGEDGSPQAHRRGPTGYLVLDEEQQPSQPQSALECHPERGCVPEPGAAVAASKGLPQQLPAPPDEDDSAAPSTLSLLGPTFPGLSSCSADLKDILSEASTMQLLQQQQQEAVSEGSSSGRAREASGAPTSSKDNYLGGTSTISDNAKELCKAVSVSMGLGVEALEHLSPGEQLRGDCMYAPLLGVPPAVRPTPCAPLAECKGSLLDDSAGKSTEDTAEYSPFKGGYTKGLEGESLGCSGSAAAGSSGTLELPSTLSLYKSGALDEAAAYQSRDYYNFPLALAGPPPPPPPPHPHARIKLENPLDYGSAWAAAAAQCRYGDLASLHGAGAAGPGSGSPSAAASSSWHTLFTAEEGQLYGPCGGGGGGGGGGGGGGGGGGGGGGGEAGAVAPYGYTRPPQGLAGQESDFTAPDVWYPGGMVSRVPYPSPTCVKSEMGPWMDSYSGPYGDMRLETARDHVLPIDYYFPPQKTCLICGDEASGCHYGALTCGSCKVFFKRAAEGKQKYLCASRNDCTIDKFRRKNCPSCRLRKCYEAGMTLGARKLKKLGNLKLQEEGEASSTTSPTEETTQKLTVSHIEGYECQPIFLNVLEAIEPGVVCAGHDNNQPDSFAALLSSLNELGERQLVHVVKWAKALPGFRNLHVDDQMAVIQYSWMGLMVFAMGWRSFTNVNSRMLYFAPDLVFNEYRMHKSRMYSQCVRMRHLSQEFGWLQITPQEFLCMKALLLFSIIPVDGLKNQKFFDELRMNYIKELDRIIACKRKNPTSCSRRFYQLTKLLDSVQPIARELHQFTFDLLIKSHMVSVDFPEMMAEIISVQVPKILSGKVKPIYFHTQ
Sequence of CYP1A2 (Homo sapiens (Human), UniProt P05177) (P05177 whole entry): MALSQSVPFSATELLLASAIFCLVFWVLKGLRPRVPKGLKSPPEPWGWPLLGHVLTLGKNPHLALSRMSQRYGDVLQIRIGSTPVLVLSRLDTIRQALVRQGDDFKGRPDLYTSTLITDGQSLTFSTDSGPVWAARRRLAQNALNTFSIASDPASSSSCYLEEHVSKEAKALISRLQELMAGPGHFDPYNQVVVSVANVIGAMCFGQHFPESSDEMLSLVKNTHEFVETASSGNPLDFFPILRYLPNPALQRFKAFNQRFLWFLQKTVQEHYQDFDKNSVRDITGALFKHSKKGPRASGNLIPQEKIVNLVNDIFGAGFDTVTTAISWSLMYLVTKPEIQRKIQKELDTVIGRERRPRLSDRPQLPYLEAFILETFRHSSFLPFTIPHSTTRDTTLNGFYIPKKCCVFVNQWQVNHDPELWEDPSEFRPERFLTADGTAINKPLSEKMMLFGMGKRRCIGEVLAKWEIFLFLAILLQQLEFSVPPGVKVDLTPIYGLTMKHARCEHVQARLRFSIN

For `COC(=O)N[C@H](C(=O)N[C@@H](Cc1ccccc1)[C@@H](O)CN(Cc1ccc(-c2ccccn2)cc1)NC(=O)[C@@H](NC(=O)OC)C(C)(C)C)C(C)(C)C` [atazanavir, reference compound], the IC50 on UGT1A1 [1] (human UGT1A1 Supersomes, probe substrate estradiol (10 μM), 30 min at 37° C., read-out: IC50) is 792 nM.

On to `CNC(=O)c1ccc(N2C(=S)N(c3ccc(C#N)c(C(F)(F)F)c3)C(=O)C2(C)C)cc1F` [enzalutamide], for which the “time course of growth inhibition” value with 22Rv1 cells [2] is “did not inhibit cell growth”. Moreover, the “effect on colony formation” value with 22Rv1 cells [3] (nanomolar dose range) is given as “no effect on colony formation”. Moreover, the “monolayer growth of VCaP cells” value in the data set on VCaP cells is recorded as “inhibited monolayer growth”. The “growth of CWR22Rv1-AR-EK cells” value with CWR22Rv1-AR-EK cells is given as “insensitive”.

Consider `O=c1cc(-c2cccc(O)c2)n(CC(F)(F)F)c2cccc(O)c12` [KCI838], for which the IC50 in the data set with 22Rv1 cells [3] (Homo sapiens, read-out: IC50 of colony counts) is around 60 nM; against CYP1A2 [6], 2920 nM; at UGT1A1 [1] (standard enzymatic activity assay, read-out: IC50 value for UGT1A1), 35900 nM; with 22Rv1-Lenti vector cells (Homo sapiens, read-out: IC50 for inhibition of colony formation), 68 nM; with 22Rv1-Lenti AR cells (Homo sapiens, with DHT, read-out: IC50 for inhibition of colony formation), 132 nM. Besides, the “induction of CYP1A2” value with CYP1A2 [4] (0.5 uM dose) is “unable to induce CYP1A2”; in the data set with CYP1A2 [4] (higher doses than 0.5 uM) it was “induce the enzyme”. Also, the “induction of UGT1A1” value in the data set with UGT1A1 [5] is listed as “not induced significantly”. Also, the “induction of UGT1A4” value in the data set on UGT1A4 is “not induced significantly”. The signs of toxicity entry in data set [7] (6-week old male BalbC mice, repeated intraperitoneal injection, 200 mg/Kg and 100 mg/Kg) is “no apparent signs of toxicity”. Also, the initial weight loss is reported as around 2% in data set [7] (100 mg/Kg) and around 4% in data set [7] (200 mg/Kg). In addition, at binding of AR to ELK1 (0.4 μM), the inhibition at 0.4 µM stood at 60%. Also, the inhibition at 10 µM at binding of AR to ELK1 (10 μM) came to 95%. For the same molecule, in the data set on HEK293 cells, the “viability of HEK293 cells” value is on record as “virtually completely viable”. Moreover, the “IC75 for inhibition of colony formation” value with 22Rv1-Lenti vector cells was 121 nM. The “inhibition of colony formation at 68 nM” value with 22Rv1-Lenti AR cells (68 nM) was “no inhibition”.
